# Test results: paper PMC7212467, “Lipid-Mediated Insertion of Toll-Like Receptor (TLR) Ligands for Facile Immune Cell Engineering” (Frontiers in Immunology, 2020)
# How the values were obtained:
# purified mouse T cells = assay: ELISA quantification of depoted lipid conjugates per T cell; assay type: cell-based; details: for ng/mL (equivalent in solution): Table S1, estimated dose on depoted T cells; for # Ligands/T cell: Table S1, quantitation of cell surface TLR2 ligands by ELISA, depoted 10 μg/mL, 1 h; for fold increase in number of depoted molecules per T cell, 0.1 to 10 μg/mL depoting concentration: biotinylated ligand, cell lysate, streptavidin-HRP/TMB absorbance 450 nm, n = 3-4 independent samples
# Description: (§1) Unless specified otherwise (in Figure 2), splenocytes, isolated B cells, or isolated T cells were incubated with CpG (5 μM), lipid-CpG (5 μM), Pam2CSK4 (10 μg/mL), or Pam3CSK4 (10 μg/mL) for 1 h in complete RPMI 1640 media supplemented with 10% fetal bovine serum. Splenocytes or T cells were then washed 3 times with PBS plus 1% bovine serum albumin to remove unbound ligand.
# One million purified T cells were depoted with FAM-labeled lipid-CpG, biotinylated Pam2CSK4, or biotinylated Pam3CSK4 as described above, and then lysed with Glo lysis buffer (Promega) for 10 min at 25°C. Lysates were collected and plated onto Nunc MaxiSorp ELISA plates (Thermo). After 2 h of incubation at 25°C, FAM-labeled lipid-CpG was excited at 488 nm, and fluorescent emission at 520 nm was quantified by a microplate fluorescence reader. For Pam2CSK4 and Pam3CSK4 samples, horseradish peroxidase (HRP)-labeled streptavidin was added for 2 h incubation at 25°C, and then TMB substrate (Thermo) was added to observe changes in absorbance at 450 nm with a microplate spectrophotometer (BioTek).
# [1] = tested on: bystander B cells (TLR2+ APCs); assay: Bystander B-cell activation by TLR2 ligand-depoted T cells; assay type: cell-based, mouse; details: for CD69 upregulation on B cells (fold MFI) / MHC II upregulation on B cells (fold MFI): T cells depoted 10 μg/mL 1 h, co-culture with B cells 2 days, MFI normalized to unstimulated B cells, n = 5-6 independent experiments; for CD69 expression, depoted vs same dose of soluble ligand / MHC II expression, depoted vs same dose of soluble ligand: soluble dose 10 ng/mL Pam2CSK4, 2 ng/mL Pam3CSK4; for B-cell activation by dose-matched soluble ligand: 10 ng/mL Pam2CSK4, 2 ng/mL Pam3CSK4
# Description: as §1
# Naïve or primed T cells were rested in complete RPMI 1640 media and supplemented with 10% FBS after depoting with Pam2CSK4 or Pam3CSK4 as described above. At selected time-points (0, 1, 2, 5, or 8 days post-depoting), T cells were washed and fixed with 4% paraformaldehyde (Sigma) for 15 min at 25°C. After washing 5 times with PBS + 1% BSA, at 1,000 × g for 5 min, T cells were cultured in complete RPMI 1640 media and supplemented with 10% FBS. Bystander B cells were added in co-cultures at a 1:1 B cell:T cell ratio. Naïve T cells without fixation were immediately cultured with bystander B cells. After 2 days of incubation at 37°C and 5% CO2, B-cell activation was measured by fluorescent staining for MHCII (clone M5/114.15.2; FITC) and CD69 (clone H1.2F3; PerCP/Cy5.5).
# polyclonal T cells = assay: Cytokine quantification in T-cell supernatants by ELISA; assay type: cell-based, mouse; details: supernatants day 2, ELISA, αCD3/CD28 bead-stimulated T cells, n = 5
# Description: (§2) Naïve T cells were labeled with 5 μM of carboxyfluorescein succinimidyl ester (CFSE, ThermoFisher). Labeled cells were cultured in RPMI 1640 media and supplemented with 10% FBS as well as αCD3/CD28 coated Dynabeads^TM (Thermo) at a 1:5 bead to T cell ratio after depoting of lipid-CpG, Pam2CSK4, and/or Pam3CSK4 ligands. Non-depoted T cells were treated with soluble lipid-CpG (5 μM), Pam2CSK4 (10 μg/mL), and/or Pam3CSK4 (10 μg/mL). Cell proliferation was measured by CFSE dilution after 3 days, and cell activation was measured by fluorescent staining for CD25 (clone PC61; PE). Cell proliferation index and division index were calculated using FlowJo LLC software. Proliferation index is defined as the total number of cell divisions divided by the number of divided cells, whereas division index is the total number of cell divisions divided by the number of total original cells ([24]). Paracrine-enhanced proliferation of bystander T cells was measured as described above, with αCD3/CD28 beads added at a 2:5 bead to T-cell ratio.
# T-cell activation was analyzed by collecting supernatants on day 2 post-activation for IL-2, IL-4, and IFNγ quantification by ELISA per manufacturer's instructions (BioLegend).
# [2] = stated as much higher than the input concentration; cited from earlier work
# Excerpt: Thus, multiple lipid tails are a key design parameter for membrane delivery, and may be a simple way to enhance delivery of cargo to plasma membranes. One explanation of lipid-mediated insertion of TLR2 lipid-ligands, i.e., Pam2CSK4 and Pam3CSK4, into plasma membr ...
# CD4+ and CD8+ T cells = assay: T-cell activation assay (CFSE proliferation, αCD3/CD28 beads); assay type: cell-based, mouse; details: αCD3/CD28 beads 3 days, CFSE dilution
# Description: as §2
# [3] = tested on: depoted and bystander CD4+ and CD8+ T cells; assay: Paracrine-enhanced proliferation: depoted T cells co-cultured with bystander T cells; assay type: cell-based, mouse; details: αCD3/CD28 beads 3 days, n = 5
# Description: as §2
# [4] = co-culture with depoted T cells
# [5] = co-culture with non-depoted T cells
substance,measurement,setting,value
Pam2CSK4,ng/mL (equivalent in solution),purified mouse T cells,9.6 ng/mL
same,# Ligands/T cell,purified mouse T cells,1.3E+07
same,"fold increase in number of depoted molecules per T cell, 0.1 to 10 μg/mL depoting concentration",purified mouse T cells,130 fold
same,CD69 upregulation on B cells (fold MFI),[1],3.8 fold
same,MHC II upregulation on B cells (fold MFI),[1],19 fold
same,"CD69 expression, depoted vs same dose of soluble ligand",[1]; 2 days co-culture,2.2 fold
same,"MHC II expression, depoted vs same dose of soluble ligand",[1]; 2 days co-culture,5.3 fold
same,B-cell activation by dose-matched soluble ligand,[1],none of the dose-matched soluble Pam2CSK4 and Pam3CSK4 activated B cells
same,"increase in IL-2 levels, depoted vs soluble ligand",polyclonal T cells,2.7 fold
same,critical micelle concentration,[2],> 10 µg/mL
Pam3CSK4,ng/mL (equivalent in solution),purified mouse T cells,1.8 ng/mL
same,# Ligands/T cell,purified mouse T cells,2.0E+06
same,"fold increase in number of depoted molecules per T cell, 0.1 to 10 μg/mL depoting concentration",purified mouse T cells,2.2 fold
same,"MHC II expression, depoted vs 10 μg/mL of soluble ligand",[1]; 2 days co-culture,1.5 fold
same,CD69 upregulation on B cells (fold MFI),[1],4.4 fold
same,MHC II upregulation on B cells (fold MFI),[1],21 fold
same,"CD69 expression, depoted vs same dose of soluble ligand",[1]; 2 days co-culture,2.8 fold
same,"MHC II expression, depoted vs same dose of soluble ligand",[1]; 2 days co-culture,6.1 fold
same,B-cell activation by dose-matched soluble ligand,[1],none of the dose-matched soluble Pam2CSK4 and Pam3CSK4 activated B cells
same,"CD8+ T-cell proliferation index, effect of depoting",CD4+ and CD8+ T cells; Figure S5,did enhance
same,"CD4+ T-cell division index, depoted vs soluble ligand",CD4+ and CD8+ T cells; n = 3,1.9 fold
same,"CD8+ T-cell division index, depoted vs soluble ligand",CD4+ and CD8+ T cells; n = 3,2.9 fold
same,bystander CD4+ T-cell division index vs soluble ligand,[3]; [4],1.3 fold
same,bystander CD8+ T-cell division index vs soluble ligand,[3]; [4],1.3 fold
same,CD4+ T-cell division index of depoted cells vs soluble ligand,[3]; [5],1.6 fold
same,CD8+ T-cell division index of depoted cells vs soluble ligand,[3]; [5],1.6 fold
same,"increase in IL-2 levels, depoted vs soluble ligand",polyclonal T cells,3.4 fold
same,critical micelle concentration,[2],> 10 µg/mL
